{"source": "patent US8697662B2", "about": "“Methods for treating Kaposi sarcoma” (PTC Therapeutics, Inc., priority 2009, dated 2014)", "key": {"[1]": {"assay": "in vivo", "details": "both, beagle, dog, po", "quoted_text": "The L23 vehicle was used. […] All studies in the toxicology program were conducted according to GLP regulations."}, "[2]": {"test_system": "Kaposi Sarcoma lesions", "assay": "Patients with Kaposi Sarcoma: cutaneous lesion size and quantity", "format": "in vivo, human", "protocol": "Subjects with HIV-associated KS may receive continuous daily treatment with a Compound being administered BID for up to 48 weeks. […] Response rate of HIV-associated KS to a Compound is an indicator of efficacy.\nCompound Administration: Subjects may be administered a Compound at the following dose levels: 40 mg/dose BID, 80 mg/dose BID, and 100 mg/dose BID. A Compound may be orally administered each day on a BID schedule at approximately the same times each day. Ideally, doses should be taken at ˜12-hour intervals (e.g., at ˜7:00 AM and at ˜7:00 PM). If convenient for the subject, the drug may be taken during or within ˜30 minutes after a meal; however, administration with food is not required. Subjects may continue receiving repeated 4-week cycles of a Compound indefinitely or until termination. Compound administration may be terminated because of, e.g., tumor progression or other progression of KS, or a dose-limiting toxicity.\nA medical history should be done within 21 days of administration of a Compound and may be done during the treatment course with a Compound (e.g., the first day of every 4 week cycle) and following such treatment. The medical history may include the following information: • 1. Previous HIV-related and non-HIV related diagnoses. • 2. […] For subjects with <50 total skin and oral lesions, all lesions should be evaluated for changes in number and characteristics. […]"}, "[3]": {"test_system": "MDA MB 468 xenografts", "assay": "Tumor perfusion by DCE-MRI in MDA MB 468 xenografts", "format": "in vivo, athymic nude mice", "details": "10 mg/kg oral QD", "description": "Experimental Design. Dynamic contrast-enhanced magnetic resonance imaging can be used preclinically and clinically to evaluate the anatomy of soft tissues, including the identification and accurate measurement of tumor volumes. In addition, evaluation of the intratumoral pharmacokinetics of contrast agents containing gadolinium can be used to measure vascular permeability characteristics. Coupling gadopentetate dimeglumine gadolinium to a […] like bovine serum albumin can reveal information about the necrotic (non-perfused) and non-necrotic (perfused) tumor volumes, and the percentage of vascular blood volume relative to the perfused tumor volume (known as the fractional blood volume [fBV]). Use of a […] tracer, gadopentetate dimeglumine, can reveal information regarding the volume transfer coefficient (K^trans), a variable that represents a combination of vascular permeability, vascular surface area, and blood flow.\nBefore each DCE-MRI scan, mice were injected intravenously with gadolinium-containing contrast dyes (bovine serum albumin-gadopentetate dimeglumine conjugate at ˜0.03 mmol/kg followed by gadopentetate dimeglumine at ˜0.2 mmol/kg). Baseline DCE-MRI measurements were taken on Day −1, test Compounds were administered on Day 0 through Day 5, and additional DCE-MRI measurements were taken on Days 1, 3, and 5. Image analyses were conducted with customized software. Total tumor volumes were measured by semi-automatically segmenting a region of interest around an anatomical image of the tumor. Tumor volumes of necrotic and non-necrotic tissues were measured by applying the same semi-automated segmentation process to a contrast dyed image. fBV and K^trans were computed using a standard Kety PK model."}, "[4]": {"assay": "In vitro plasma protein binding of 14C-radiolabeled Compound #10", "format": "in vitro ADME, mice, rats, dogs, monkeys, and humans", "details": "0.05 to 50 μg/mL"}, "[5]": {"assay": "Functional observation battery, 7 days oral gavage", "format": "in vivo, Sprague Dawley rats", "details": "40, 120, and 400 mg/kg daily oral gavage"}, "[6]": {"test_system": "SY5Y xenografts", "assay": "Tumor growth inhibition in subcutaneous SY5Y neuroblastoma xenografts", "format": "in vivo, athymic nude mice", "protocol": "Experimental Design. SY5Y cells are derived from a human neuroblastoma, a childhood tumor arising in neural crest cells. SY5Y cells (1×10^7 cells/mouse) were implanted subcutaneously in male athymic nude mice.\nTumor size was measured by calipers at periodic intervals. When the average tumor size in a group exceeded 2000 mm^3, the mice in the group were sacrificed and excised tumors were assayed for intratumoral VEGF concentration as described in Section 9.1.1.1."}, "[7]": {"target": "T1, CYP1A2 (Homo sapiens, UniProt P05177)", "T1 construct": "host or cells: human hepatic microsomes or human recombinant isoenzymes", "T1 sequence (P05177 whole entry)": "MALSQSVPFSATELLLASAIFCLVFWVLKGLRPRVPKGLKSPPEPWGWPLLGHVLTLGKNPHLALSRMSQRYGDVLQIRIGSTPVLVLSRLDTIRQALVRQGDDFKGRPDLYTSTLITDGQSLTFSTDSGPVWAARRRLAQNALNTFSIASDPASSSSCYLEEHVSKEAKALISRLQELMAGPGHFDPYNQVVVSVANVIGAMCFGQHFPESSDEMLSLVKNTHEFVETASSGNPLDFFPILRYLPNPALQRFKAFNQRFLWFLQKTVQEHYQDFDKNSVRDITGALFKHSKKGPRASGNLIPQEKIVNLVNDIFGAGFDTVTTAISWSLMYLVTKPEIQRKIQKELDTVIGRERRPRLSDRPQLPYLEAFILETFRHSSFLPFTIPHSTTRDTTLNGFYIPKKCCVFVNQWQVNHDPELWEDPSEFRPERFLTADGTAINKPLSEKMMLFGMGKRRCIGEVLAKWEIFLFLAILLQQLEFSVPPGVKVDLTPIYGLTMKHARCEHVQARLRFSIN", "assay": "CYP inhibition in human hepatic microsomes or recombinant isoenzymes: CYP1A2", "format": "in vitro ADME", "description": "It is possible that in certain clinical trial subjects, such agents may need to be adjusted for dosing or replaced by alternative agents that are not metabolized by CYP2D6, particularly when such agents may have a low therapeutic index."}}, "note": "Marks after values point to notes of the source that are not given here."}
{"smiles": "COc1ccc(C2c3[nH]c4ccc(Cl)cc4c3CCN2C(=O)Oc2ccc(Cl)cc2)cc1", "note": "(racemic) [Compound #10]", "values": [{"measurement": "NOAEL at 28 days", "setting": "[1]", "result": 30, "unit": "mg/kg/day"}, {"measurement": "lesion size (in words)", "setting": "[2]; patients with Kaposi Sarcoma (FIG. 34)", "result": "reduced"}, {"measurement": "reduction in the number of raised lesions", "setting": "[2]; patients with Kaposi Sarcoma labeled PR (FIG. 34)", "result": "≥ 50", "unit": "%"}, {"measurement": "mean K^trans in non-necrotic tissue (in words)", "setting": "[3]; Day -1 to Day 5", "result": "decreased"}, {"measurement": "mean non-necrotic tumor volume (in words)", "setting": "[3]; Day -1 to Day 5", "result": "decreased"}, {"measurement": "mean total tumor volume (DCE-MRI), change (in words)", "setting": "[3]; Day -1 to Day 5", "result": "little mean change"}, {"measurement": "mean necrotic (non perfused) tumor volume (in words)", "setting": "[3]; significant by Day 1", "result": "rapidly increased"}, {"measurement": "mean tumor fBV in non-necrotic tissue (in words)", "setting": "[3]; significant vs vehicle on Day 5", "result": "declined after Day 3"}, {"measurement": "concentration dependence of protein binding (in words)", "setting": "[4]", "result": "independent of concentration"}, {"measurement": "behavioral or neurological effects (functional observation battery)", "setting": "[5]", "result": "no adverse behavioral or neurological effects"}, {"measurement": "Mean % Inhibition of Intratumoral VEGF vs Vehicle at Sacrifice", "setting": "[6]; 50 mg/kg QD, 250 mg/kg per week (Table 18), oral 5 days per week", "result": "96* %"}, {"measurement": "mean tumor size (in words)", "setting": "[6]; through 15-days of dosing", "result": "essentially eliminated any increase in mean tumor size"}, {"measurement": "inhibition of CYP1A2 (in words)", "setting": "[7]", "result": "No meaningful inhibition"}]}
